The target in experiment [1] is T1, interaction between VCP and mtHtt (Homo sapiens, UniProt P55072).
T1 construct: GFP; expressed in transfected cells; host or cells: HEK293
The experiment is described as follows: VCP binding assay: association of VCP to mtHtt by immunoprecipitation and western blot in HEK293 cells. The settings on record: HEK293 cells co-transfected with GFP-VCP and myc-Q73 FL, 3 μM, three doses. The format is cell-based. How it is done: Therefore, target engagement protein binding assays were conducted. HEK293 cells were cultured and plated one day before treatment. Cells were pre-treated with HV3-TAT or PLPs at 3 μM for 2 h. Cells were then co-transfected with GFP-VCP and myc-Q73 FL plasmids. Cells were treated with a second dose of peptide or PLPs 6 hours after transfection, and a final third dose of peptide or PLPs treatment was administered 24 hours after transfection. Cell total lysate was harvested 48 hours after transfection, and to confirm binding of PLPs to VCP in cells, association of VCP to mtHtt was quantified by immunoprecipitation (IP) followed by western blot upon treatment of HV3-TAT peptide and PLPs.

For another experiment, the system named is R6/2 mice. The experiment is described as follows: In vivo efficacy in R6/2 Huntington's disease mice, behavioral analysis, body weight, survival. On the set-up: species or system mouse. The settings on record: for open field horizontal activity / open field total distance / open field vertical activity: 13 weeks; for survival: over the saline control; for average percent of body weight gain: week 13. The source says: FIG. 31A-31F: For each of FIG. 31A-31F, data is shown reflecting the results of 3 separate studies (i.e., “Batch 1+2+3”) conducted under identical conditions; “veh” refers to the vehicle saline control. For each of FIG. 31A-31C at week 6, WT: n=15; WT+P1: n=15; R62 veh: n=22; R62+HV3-TAT: n=32; and R62+P1: n=16. For each of FIG. 31D-31F at week 6, WT: n=15; WT+P1: n=15; R62 veh: n=17; R62+HV3-TAT: n=30; and R62+P1: n=13. FIG. 31A depicts the average percent of body weight gain for mice subjected to each treatment. From top to bottom, the week 13 data points correspond to: WT+P1 (˜43%); WT (˜39%); R62+P1 (˜1%); R62+HV3-TAT (˜ […]); and R62 (˜-9%). FIG. 31B depicts the survival rate for each treatment group over time. 100% survival rate for WT veh and WT+P1. R62+P1 as compared to R62 veh: p-value=0.0454; R62+HV3-TAT as compared to R62 veh: p-value=0.0201. FIG. 31C depicts the average hindlimb clasping score for each treatment group at weeks 11, 12, and 13. For each week: R62 mice treated with vehicle (left), R62 treated with HV3-TAT (middle), and R62 treated with P1 (right). p-values in week 11: 0.0145 (top—R62 veh as compared to R62+P1), 0.0432 (middle—R62 veh as compared to R62+HV3-TAT), and 0.6051 (bottom—R62+HV3-TAT as compared to R62+P1); week 12: 0.0037 (top—R62 veh as compared to R62+P1), 0.0263 (middle—R62 veh as compared to R62+HV3-TAT), and 0.3957 (bottom—R62+HV3-TAT as compared to R62+P1); week 13: 0.0031 (top—R62 veh as compared to R62+P1), 0.0177 (middle—R62 veh as compared to R62+HV3-TAT), and 0.4938 (bottom—R62+HV3-TAT as compared to R62+P1). FIG. 31D depicts results from the open field tests representing the total distance traveled at final data collection. p-value for: WT veh as compared to R62 veh: <0.0001; WT+P1 as compared to R62 veh: <0.0001; R62 veh as compared to R62+HV3-TAT: 0.0021; R62 veh as compared to R62+P1: <0.0001; R62+HV3-TAT as compared to R62+P1: 0.1486. FIG. 31E depicts results from the horizontal activity tests. p-value for: WT veh as compared to R62 veh: <0.0001; WT+P1 as compared to R62 veh: <0.0001; R62 veh as compared to R62+HV3-TAT: 0.0262; R62 veh as compared to R62+P1: <0.0001; R62+HV3-TAT as compared to R62+P1: 0.0083. FIG. 31F depicts results from the vertical activity tests. P-value for: WT veh as compared to R62 veh: 0.0004; WT+P1 as compared to R62 veh: <0.0001; R62 veh as compared to R62+HV3-TAT: 0.2879; R62 veh as compared to R62+P1: 0.0375; R62+HV3-TAT as compared to R62+P1: 0.6222.
In vivo Efficacy Methods—Behavioral Analysis: All experiments in animals were conducted in accordance with protocols approved by the Institutional Animal Care and Use Committee of Northwestern University and were performed based on the National Institutes of Health Guide for the Care and Use of Laboratory Animals. HV3-TAT at its operating dose, saline (negative control), and P1 at a dose of […] (3 mg/kg/day with respect to peptide) were administered to Huntington's phenotype R6/2 (sometimes referred to herein as R62) mice and WT mice via Alzet osmotic pump from 6 to 13 weeks of age. The accepted HD phenotype is a decrease in motor coordination, general motility and body weight in male mice as they age from 5 to 13 weeks. A key phenotype of R6/2 mice is hindlimb clasping. Accordingly, hindlimb clasping was assessed with the tail suspension test weekly from the ages 7 to 13 weeks in R6/2 mice and WT littermates. Mice were suspended by the tail for 60 sec and the latency for the hindlimbs or all four paws to clasp was recorded using the following score system: clasping over 10 sec, score 3; 5-10 sec, score 2; 0-5 sec, score 1; 0 sec, score 0. The body weight and survival rate of HD mice and WT littermates were also recorded throughout the study period. For open field motor activity, gross locomotor activity was assessed in R6/2 mice and age-matched WT littermates at the ages of 13 weeks. […]

These results are taken from US20240110004A1 (Northwestern University, priority 2022, published 2024).

Where no end group is shown, it is not given here.

T1 sequence (P55072 whole entry): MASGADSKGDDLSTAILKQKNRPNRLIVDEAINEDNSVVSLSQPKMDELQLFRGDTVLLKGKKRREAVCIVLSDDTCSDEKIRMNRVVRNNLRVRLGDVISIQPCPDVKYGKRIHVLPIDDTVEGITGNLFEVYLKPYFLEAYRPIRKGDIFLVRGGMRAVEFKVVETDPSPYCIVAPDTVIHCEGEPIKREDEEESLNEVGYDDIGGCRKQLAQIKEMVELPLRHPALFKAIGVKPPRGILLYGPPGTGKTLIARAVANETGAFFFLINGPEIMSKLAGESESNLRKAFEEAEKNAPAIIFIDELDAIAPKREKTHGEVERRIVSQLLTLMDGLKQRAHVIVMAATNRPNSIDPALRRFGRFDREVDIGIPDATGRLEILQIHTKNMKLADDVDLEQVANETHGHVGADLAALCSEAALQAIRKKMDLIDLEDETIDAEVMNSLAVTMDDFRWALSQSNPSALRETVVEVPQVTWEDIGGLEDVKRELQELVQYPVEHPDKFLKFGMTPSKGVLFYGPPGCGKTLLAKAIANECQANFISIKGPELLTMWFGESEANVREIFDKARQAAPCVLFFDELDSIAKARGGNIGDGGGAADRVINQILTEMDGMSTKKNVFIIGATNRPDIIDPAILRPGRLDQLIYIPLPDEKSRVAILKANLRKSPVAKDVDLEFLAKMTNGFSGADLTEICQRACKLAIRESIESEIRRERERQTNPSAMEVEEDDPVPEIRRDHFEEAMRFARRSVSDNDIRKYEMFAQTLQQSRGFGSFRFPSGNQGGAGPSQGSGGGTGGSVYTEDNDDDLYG

On to “P1: PLP homopolymer having peptide side chains of SEQ ID: 1 (HVLVMSATRR), made by ROMP of norbornene peptide monomer M1 (also: side chains of polynorbornene homopolymer (PLP, ROMP of norbornene peptide monomer))”, for which, in experiment [1], the “association of VCP to mtHtt (VCP binding)” value was “exhibited evidence for binding”. In addition, in the experiment on R6/2 mice, the “open field horizontal activity” value was “improved”, the “open field total distance” value was “improved”, the “open field vertical activity” value was “improved” and the survival result is “significantly extending survival”. In addition, the “average percent of body weight gain” value in the experiment on R6/2 mice is around 1%.
For the substance “peptide sequence HVLVMCAT (HV3) coupled to the cell penetrating, HIV-derived TAT peptide [HV3-TAT, reference compound]”, the “association of VCP to mtHtt (VCP binding)” value in experiment [1] is recorded as “exhibited evidence for binding”. Besides, in the experiment on R6/2 mice, the “open field horizontal activity” value was “improved”, the “open field total distance” value was “improved”, the “open field vertical activity” value is given as “improved” and the survival entry is on record as “significantly extending survival”. Also, the “average percent of body weight gain” value with R6/2 mice is around 4%. In addition, the hindlimb clasping result with R6/2 mice (tail suspension test, weekly) is “longer clasping time than P1 treated mice”.
